Test results reported in PubChem BioAssay (NCI).
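These data come from cells grown in 96-well plates and exposed to compound for 48 hours at five concentrations. GI50 is the concentration that inhibits growth by half. TGI: total growth inhibition.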

Assays:
Experiment in all cases: NCI anticancer screen, dose series, 48 h; in the data active = GI50 below about 0.43 µM; inactive = the rest
OVCAR-5 ovarian = tested on: OVCAR-5 ovarian
MDA-MB-435 = tested on: MDA-MB-435
NCI-H522 lung = tested on: NCI-H522 lung
UO-31 renal = tested on: UO-31 renal
SF-268 CNS = tested on: SF-268 CNS
MOLT-4 leukemia = tested on: MOLT-4 leukemia
HT29 colon = tested on: HT29 colon
CAKI-1 renal = tested on: CAKI-1 renal
SK-MEL-28 melanoma = tested on: SK-MEL-28 melanoma
KM12 colon = tested on: KM12 colon
NCI-H460 lung = tested on: NCI-H460 lung
A498 renal = tested on: A498 renal
SK-MEL-5 melanoma = tested on: SK-MEL-5 melanoma
SK-MEL-2 melanoma = tested on: SK-MEL-2 melanoma
UACC-62 melanoma = tested on: UACC-62 melanoma
HCT-15 colon = tested on: HCT-15 colon
SR leukemia = tested on: SR leukemia
SF-295 CNS = tested on: SF-295 CNS
MDA-MB-231 breast = tested on: MDA-MB-231 breast
786-0 renal = tested on: 786-0 renal
HL-60(TB) leukemia = tested on: HL-60(TB) leukemia
SN12C renal = tested on: SN12C renal
HCC-2998 colon = tested on: HCC-2998 colon
OVCAR-3 ovarian = tested on: OVCAR-3 ovarian
RPMI-8226 leukemia = tested on: RPMI-8226 leukemia
A549 NSCLC = tested on: A549 NSCLC
CCRF-CEM leukemia = tested on: CCRF-CEM leukemia
HOP-62 NSCLC = tested on: HOP-62 NSCLC
UACC-257 melanoma = tested on: UACC-257 melanoma
IGROV1 ovarian = tested on: IGROV1 ovarian
SW-620 colon = tested on: SW-620 colon
M14 melanoma = tested on: M14 melanoma
U251 CNS = tested on: U251 CNS
OVCAR-8 ovarian = tested on: OVCAR-8 ovarian
SNB-19 CNS = tested on: SNB-19 CNS
ACHN renal = tested on: ACHN renal
NCI/ADR-RES ovarian = tested on: NCI/ADR-RES ovarian
SK-OV-3 ovarian = tested on: SK-OV-3 ovarian
HCT-116 colon = tested on: HCT-116 colon
SNB-75 CNS = tested on: SNB-75 CNS
SF-539 CNS = tested on: SF-539 CNS
K-562 leukemia = tested on: K-562 leukemia
COLO 205 colon = tested on: COLO 205 colon
PC-3 prostate = tested on: PC-3 prostate
HS 578T breast = tested on: HS 578T breast
DU-145 prostate = tested on: DU-145 prostate
MCF7 breast = tested on: MCF7 breast
LOX IMVI melanoma = tested on: LOX IMVI melanoma
BT-549 breast = tested on: BT-549 breast
RXF 393 renal = tested on: RXF 393 renal
NCI-H226 lung = tested on: NCI-H226 lung
OVCAR-4 ovarian = tested on: OVCAR-4 ovarian
MALME-3M melanoma = tested on: MALME-3M melanoma
HOP-92 NSCLC = tested on: HOP-92 NSCLC
NCI-H23 lung = tested on: NCI-H23 lung
T-47D breast = tested on: T-47D breast

COc1ccc(C(=O)c2sc3nc(-c4cccs4)ccc3c2N)cc1OC
5.28 µM: TGI (SK-MEL-5 melanoma)
95.8 µM: TGI (NCI-H522 lung)
29.6 µM: TGI (MDA-MB-231 breast)
70.4 µM: TGI (SK-MEL-28 melanoma)
22.7 µM: TGI (SR leukemia)
> 100 µM: TGI (OVCAR-5 ovarian) | TGI (UO-31 renal) | TGI (SF-268 CNS) | TGI (CAKI-1 renal) | TGI (KM12 colon) | TGI (NCI-H460 lung) | TGI (A498 renal) | TGI (UACC-62 melanoma) | TGI (HCT-15 colon) | TGI (786-0 renal) | TGI (HL-60(TB) leukemia) | TGI (SN12C renal) | TGI (HCC-2998 colon) | TGI (OVCAR-3 ovarian) | TGI (RPMI-8226 leukemia) | TGI (A549 NSCLC) | TGI (CCRF-CEM leukemia) | TGI (HOP-62 NSCLC) | TGI (UACC-257 melanoma) | TGI (IGROV1 ovarian) | TGI (SW-620 colon) | TGI (M14 melanoma) | TGI (U251 CNS) | TGI (OVCAR-8 ovarian) | TGI (SNB-19 CNS) | TGI (ACHN renal) | TGI (NCI/ADR-RES ovarian) | TGI (SK-OV-3 ovarian) | TGI (HCT-116 colon) | TGI (SNB-75 CNS) | TGI (SF-539 CNS) | TGI (K-562 leukemia) | TGI (COLO 205 colon) | TGI (PC-3 prostate) | TGI (HS 578T breast) | TGI (DU-145 prostate) | TGI (MCF7 breast) | TGI (LOX IMVI melanoma) | TGI (BT-549 breast) | TGI (RXF 393 renal) | TGI (NCI-H226 lung) | TGI (OVCAR-4 ovarian)
inactive: GI50 (OVCAR-5 ovarian) 19.8 µM | GI50 (MDA-MB-435) 1.43 µM | GI50 (NCI-H522 lung) 2.86 µM | GI50 (UO-31 renal) 4.56 µM | GI50 (SF-268 CNS) 8.33 µM | GI50 (MOLT-4 leukemia) 3.78 µM | GI50 (HT29 colon) 3.65 µM | GI50 (CAKI-1 renal) 5.29 µM | GI50 (SK-MEL-28 melanoma) 4.98 µM | GI50 (KM12 colon) 4.42 µM | GI50 (NCI-H460 lung) 3.88 µM | GI50 (A498 renal) 2 µM | GI50 (SK-MEL-5 melanoma) 2.01 µM | GI50 (SK-MEL-2 melanoma) 3.29 µM | GI50 (UACC-62 melanoma) 6.47 µM | GI50 (HCT-15 colon) 2.81 µM | GI50 (SR leukemia) 3.26 µM | GI50 (SF-295 CNS) 3.07 µM | GI50 (MDA-MB-231 breast) 2.96 µM | GI50 (786-0 renal) 62.4 µM | GI50 (HL-60(TB) leukemia) 4.14 µM | GI50 (SN12C renal) 11 µM | GI50 (HCC-2998 colon) 26.2 µM | GI50 (OVCAR-3 ovarian) 6.78 µM | GI50 (RPMI-8226 leukemia) 5.45 µM | GI50 (A549 NSCLC) 4.71 µM | GI50 (CCRF-CEM leukemia) 4.53 µM | GI50 (HOP-62 NSCLC) 17.6 µM | GI50 (UACC-257 melanoma) 8.51 µM | GI50 (IGROV1 ovarian) 7.72 µM | GI50 (SW-620 colon) 5.07 µM | GI50 (M14 melanoma) 4.27 µM | GI50 (U251 CNS) 7.78 µM | GI50 (OVCAR-8 ovarian) 5.56 µM | GI50 (SNB-19 CNS) > 100 µM | GI50 (ACHN renal) 9.26 µM | GI50 (NCI/ADR-RES ovarian) 3.61 µM | GI50 (SK-OV-3 ovarian) 51.9 µM | GI50 (HCT-116 colon) 5.06 µM | GI50 (SNB-75 CNS) 4.06 µM | GI50 (SF-539 CNS) 5.32 µM | GI50 (K-562 leukemia) 2.1 µM | GI50 (COLO 205 colon) 5.35 µM | GI50 (PC-3 prostate) 3.65 µM | GI50 (HS 578T breast) 6.27 µM | GI50 (DU-145 prostate) 16 µM | GI50 (MCF7 breast) 2.79 µM | GI50 (LOX IMVI melanoma) 6.73 µM | GI50 (BT-549 breast) 3.82 µM | GI50 (RXF 393 renal) 9.98 µM | GI50 (NCI-H226 lung) 17.9 µM | GI50 (OVCAR-4 ovarian) 6.75 µM
4.76 µM: TGI (MDA-MB-435)
17.4 µM: TGI (HT29 colon)
18 µM: TGI (MOLT-4 leukemia)
18.2 µM: TGI (SF-295 CNS)
19.2 µM: TGI (SK-MEL-2 melanoma)

Nc1nc(N)c2nc3c(nc2n1)CCCCCCCCCC3
51.2 µM: TGI (SNB-75 CNS)
active: GI50 (NCI-H460 lung) 0.358 µM | GI50 (A549 NSCLC) 0.407 µM | GI50 (IGROV1 ovarian) 0.421 µM | GI50 (HCT-116 colon) 0.379 µM
inactive: GI50 (OVCAR-5 ovarian) 1.75 µM | GI50 (MDA-MB-435) 0.577 µM | GI50 (UO-31 renal) 1.88 µM | GI50 (SF-268 CNS) 2.1 µM | GI50 (MOLT-4 leukemia) 3.83 µM | GI50 (CAKI-1 renal) 3.36 µM | GI50 (SK-MEL-28 melanoma) > 100 µM | GI50 (KM12 colon) 8.6 µM | GI50 (MALME-3M melanoma) 4.48 µM | GI50 (A498 renal) 6.9 µM | GI50 (SK-MEL-5 melanoma) 0.652 µM | GI50 (HOP-92 NSCLC) 3.23 µM | GI50 (UACC-62 melanoma) 1.39 µM | GI50 (HCT-15 colon) 0.891 µM | GI50 (SR leukemia) 5.03 µM | GI50 (SF-295 CNS) 0.509 µM | GI50 (MDA-MB-231 breast) 6.04 µM | GI50 (786-0 renal) 0.675 µM | GI50 (HL-60(TB) leukemia) 1.95 µM | GI50 (SN12C renal) 7.04 µM | GI50 (HCC-2998 colon) 3.83 µM | GI50 (OVCAR-3 ovarian) 6.15 µM | GI50 (RPMI-8226 leukemia) > 100 µM | GI50 (CCRF-CEM leukemia) 6.24 µM | GI50 (NCI-H23 lung) 2.86 µM | GI50 (HOP-62 NSCLC) 4.47 µM | GI50 (UACC-257 melanoma) 2.4 µM | GI50 (SW-620 colon) 0.553 µM | GI50 (M14 melanoma) 0.544 µM | GI50 (U251 CNS) 2.71 µM | GI50 (OVCAR-8 ovarian) 1.99 µM | GI50 (SNB-19 CNS) 6.43 µM | GI50 (ACHN renal) 2.98 µM | GI50 (NCI/ADR-RES ovarian) 2.4 µM | GI50 (SK-OV-3 ovarian) 12 µM | GI50 (SNB-75 CNS) 5.35 µM | GI50 (SF-539 CNS) 5.69 µM | GI50 (K-562 leukemia) 0.43 µM | GI50 (COLO 205 colon) 6.83 µM | GI50 (PC-3 prostate) 5.73 µM | GI50 (HS 578T breast) 3.63 µM | GI50 (DU-145 prostate) 2.78 µM | GI50 (MCF7 breast) 2.96 µM | GI50 (T-47D breast) > 100 µM | GI50 (LOX IMVI melanoma) 0.733 µM | GI50 (RXF 393 renal) 4.12 µM | GI50 (NCI-H226 lung) 19 µM | GI50 (OVCAR-4 ovarian) > 100 µM
> 100 µM: TGI (OVCAR-5 ovarian) | TGI (MDA-MB-435) | TGI (UO-31 renal) | TGI (SF-268 CNS) | TGI (MOLT-4 leukemia) | TGI (CAKI-1 renal) | TGI (SK-MEL-28 melanoma) | TGI (KM12 colon) | TGI (MALME-3M melanoma) | TGI (NCI-H460 lung) | TGI (A498 renal) | TGI (SK-MEL-5 melanoma) | TGI (HOP-92 NSCLC) | TGI (UACC-62 melanoma) | TGI (HCT-15 colon) | TGI (SR leukemia) | TGI (SF-295 CNS) | TGI (MDA-MB-231 breast) | TGI (786-0 renal) | TGI (HL-60(TB) leukemia) | TGI (SN12C renal) | TGI (HCC-2998 colon) | TGI (OVCAR-3 ovarian) | TGI (RPMI-8226 leukemia) | TGI (A549 NSCLC) | TGI (CCRF-CEM leukemia) | TGI (NCI-H23 lung) | TGI (HOP-62 NSCLC) | TGI (UACC-257 melanoma) | TGI (IGROV1 ovarian) | TGI (SW-620 colon) | TGI (M14 melanoma) | TGI (U251 CNS) | TGI (OVCAR-8 ovarian) | TGI (SNB-19 CNS) | TGI (ACHN renal) | TGI (NCI/ADR-RES ovarian) | TGI (SK-OV-3 ovarian) | TGI (HCT-116 colon) | TGI (SF-539 CNS) | TGI (K-562 leukemia) | TGI (COLO 205 colon) | TGI (PC-3 prostate) | TGI (HS 578T breast) | TGI (DU-145 prostate) | TGI (MCF7 breast) | TGI (T-47D breast) | TGI (LOX IMVI melanoma) | TGI (RXF 393 renal) | TGI (NCI-H226 lung) | TGI (OVCAR-4 ovarian)
